Assay results: patent US8741659B2, “Composition for measuring the binding affinity between nucleic acid and test substance, and use thereof” (Osaka University, priority 2007, dated 2014)

Test system: RRE
Test: Displacement assay using Rev peptide after formation of complex with RRE
Format: binding, HIV-1
Settings: compound and RRE each 2 μM, Rev protein 0-4.0 μM
Method: In this Example, a binding affinity between a test substance and RRE was evaluated, with use of the compounds, X2S, X2S(3), X2S(4), X2S(5), X2S(2-Me), and 3,6-X2S(2). As the test substance, Rev protein used in Example 5 was used.
Firstly, in the same manner as in Example 3, the above compounds and RREs were respectively dissolved in cacodylate buffer solutions (sodium cacodylate: 10 mM pH 7.0, NaCl: 100 mM) each at 2 μM, so that an X2S-RRE solution, an X2S(3)-RRE solution, an X2S(4)-RRE solution, an X2S(5)-RRE solution, an X2S(2-Me)-RRE solution, and a 3,6-X2S(2)-RRE solution were prepared.
To each of these solutions, Rev protein was added in stages at 0 μM, 0.4 μM, 0.8 μM, 1.2 μM, 1.6 μM, 2.0 μM, 2.4 μM, 2.8 μM, 3.2 μM, 3.6 μM, and 4.0 μM. Further, a fluorescence intensity was measured at each concentration. The fluorescence intensity was measured in the same manner as that described in Example 14.
Each of FIGS. 43 to 48 is a view illustrating a result of the measurement of a binding affinity between Rev protein and RRE. […] In each of FIGS. 43 to 48, the horizontal axis represents the fluorescence wavelength, whereas the vertical axis represents the fluorescence intensity. […] Further, along the direction of the arrow extending from the curved line at the bottom, the curved lines, showing the respective results, are arranged in order of increasing amount of the test substance which was added.
FIG. 49 is a view illustrating a relationship between an amount of Rev added and a fluorescence intensity, in connection with X2S, X2S(3), X2S(4), X2S(5), X2S(2-Me), and 3,6-X2S(2). Further, FIG. 49 is also a view plotting, based on the results illustrated in FIGS. 43 to 48, the fluorescence intensities detected at the fluorescence wavelength at which the respective fluorescence peaks were observed. FIG. 50 is a graph illustrating a relationship between an amount of Rev added and a recovery rate of the fluorescence intensity. In FIG. 49, the vertical axis represents the fluorescence intensity. In FIG. 50, the vertical axis represents the recovery rate of the fluorescence intensity. In each of FIGS. 49 and 50, the horizontal axis represents the amount of Rev added. That is, each of FIGS. 49 and 50 reflects amounts of the above compounds liberated from RREs due to the addition of Rev.
The recovery rate of the fluorescence intensity was obtained by dividing (i) a maximum value of the fluorescence intensity detected at each Rev concentration ranging from 0 μM to 4.0 μM in each of FIGS. 43 to 48 by (ii) a maximum value of the fluorescence intensity of the curved line at the top in each of FIGS. 43 to 48.
In this Example, 1-Pyrenemethanamide, hydrochloride was used to measure a binding affinity between a test substance and RRE. As the test substance, Rev protein used in Example 5 was used.
Firstly, in the same manner as in Example 3, 1-Pyrenemethanamide, hydrochloride and RRE were dissolved in a cacodylate buffer solution (sodium cacodylate: 10 mM, pH 7.0; NaCl: 100 mM) each at 2 μM, so that a 1-Pyrenemethanamide, hydrochloride-RRE solution was prepared.
To the solution, Rev protein was added in steps at 0 μM, 0.4 μM, 0.8 μM, 1.2 μM, 1.6 μM, 2.0 μM, 2.4 μM, 2.8 μM, 3.2 μM, 3.6 μM, and 4.0 μM. Further, the solution at each concentration was irradiated with light having an excitation wavelength of 340 nm, and a fluorescence intensity was measured. A device used for measuring a fluorescence intensity and a variation in a slit width were the same as those in Example 13.
FIG. 55 is a view illustrating a result of the measurement of a binding affinity between Rev protein and RRE. The horizontal axis represents the fluorescence wavelength, whereas the vertical axis represents the fluorescence intensity. […] Further, along a bottom-to-top direction, the curved lines, showing the respective results, are arranged in order of increasing amount of the test substance which was added. […]

NCCOc1ccc2oc3ccc(OCCN)cc3c(=O)c2c1 [X2S, 2,7-bis(2-aminoethoxy)xanthen-9-one]
fluorescence intensity in displacement assay: high | recovery rate of the fluorescence intensity: good
